Like-named read-outs stand apart in the source and are kept apart here. Numbered stars: 1 amine (or outer) side, 2 acyl side, 3 side chain; on linkers, the order of the positions; unused ones are H or OH. Bridge positions count the residues as written; N and C are the ends. Square brackets hold non-standard residues; d marks the D form. Peptide text beside a SMILES is read from it. X1 = CC(C)CCCCCCCCC[C@H](CC(=O)[*:1])O[*:2]
Tests used:
[1] = test system: Streptomyces turgidiscabies 91SY-12; assay: Antibacterial activity against potato scab pathogen: surfactin sodium in agar medium; assay type: cell-based; settings: 30° C., 3 days
Method: Each agar medium was smeared with a spore suspension of the potato scab pathogen Streptomyces turgidiscabies 91SY-12 (hereinafter referred to as “the strain 91SY-12”) and incubated at 30° C. for 3 days.

[2] = test system: Streptomyces turgidiscabies 91SY-12; settings: 10 mg/ml in methanol, 30° C., 11 days
Excerpt: In the same manner as shown in Example 2, the agar medium was smeared with a spore suspension of the strain 91SY-12, and 4 paper disks (8 mm diameter) were placed thereon.

[3] = test system: Streptomyces turgidiscabies 91SY-12; settings: 50 μl per paper disk, 30° C., 6 days
[4] = test system: plant pathogens; settings: surfactin alone; reported in JP 06-135811 A; cited from earlier work

Molecule: CC(C)CCCCCCCCC[C@@H]1CC(=O)N[C@@H](CCC(=O)O)C(=O)N[C@@H](CC(C)C)C(=O)N[C@H](CC(C)C)C(=O)N[C@@H](C(C)C)C(=O)N[C@@H](CC(=O)O)C(=O)N[C@H](CC(C)C)C(=O)N[C@@H](CC(C)C)C(=O)O1 [surfactin sodium] (EL[dL]VD[dL]L; linker N-C via X1)
- inhibition of spore formation ([1]; 10 μg/ml in agar medium): tendency to inhibit spore formation
- inhibition of spore formation ([1]; 50 μg/ml in agar medium): tendency to inhibit spore formation
- inhibition of spore formation ([1]; 100 μg/ml in agar medium): tendency to inhibit spore formation

Molecule: surfactin
- inhibition of spore formation ([2]; 10 μl per paper disk): strongly inhibited
- inhibition of spore formation ([2]; 50 μl per paper disk): strongly inhibited
- inhibition of spore formation ([2]; 100 μl per paper disk): strongly inhibited
- inhibitory effect on spore formation ([3]; 0.01 mg/ml in methanol): no inhibitory effect on spore formation
- inhibitory effect on spore formation ([3]; 0.1 mg/ml in methanol): inhibited, albeit weakly
- inhibitory effect on spore formation ([3]; 1.0 mg/ml in methanol): inhibited strongly
- antibacterial action against plant pathogens [4]: no antibacterial action
